Legend:
Tenebrio molitor L = assay: Tenebrio test (topical application to pupae, morphological inhibition of adult characters); assay type: in vivo, Tenebrio molitor L (yellow mealworm); details: for ID-50 morph.: Table I, topical, acetone solution, 0.5 to 2 hours old pupae (150 mg), 27° C, 70% RH
Protocol: (§1) The biological tests are examplified by tests on the yellow mealworm, Tenebrio molitor L, Galleria mellonella L, Culex pipiens L, Aedes aegypti L and Drosophila melanogaster L.
Tenebrio test: The material in question is applied topically to the abdomen of 0.5 to 2 hours old pupae of the said species, as a solution in acetone. The pupae are held at 27° C and 70% RH, ecdysis occuring 5 to 7 days later. The degree of inhibition of adult characters is referred to an arbitrary scale, where a morphologically perfect adult is given the character 0%, and a perfect second pupae 100%. In Table 1 is given the morphological inhibition dose 50% (ID 50 morph.) for some of the chemicals invented, in μg per standard pupa (150 mg). ID 50 morph. refers to specimens showing predominantly adult characters in the front part, pupal characters in the abdomen.
ID50 morph is as said above the dose causing development of individuals showing predominantly adult characters in the front part and pupal characters in the abdomen. It is known that ID50 -doses in general are 10 times greater than ED50 -doses.

Culex pipiens L = assay: Culex test (mature larvae, loss of 50% of test animals); assay type: in vivo; details: Table I, read-out: IC-50 eclos.
Protocol: The biological tests are examplified by tests on the yellow mealworm, Tenebrio molitor L, Galleria mellonella L, Culex pipiens L, Aedes aegypti L and Drosophila melanogaster L. Culex test: The compounds are tested on mature larvae. The concentration (IC-50 eclos.) is given in ppm.

[1] = system: Drosophila melanogaster L; assay: Drosophila test (compound in agar based food, pupae which fail in ecdysis); assay type: in vivo; details: Table I, in artificial agar based food, pupae failing in ecdysis
Protocol: as §1
Drosophila test: One ml of acetone solution of the compound to be tested is mixed with an artificial agar based food mixture just before this solidifies. Ten less than one day old adult flies -- five of each sex -- are added, and all abnormalities observed for two generations. Juvenile hormone activity is especially noted in the pupae which fail in ecdysis. EC50 -eclos. is given in ppm.

Aedes aegypti L = assay: Aedes test (same test as for Culex); assay type: in vivo; details: Table I, mature larvae, loss of 50% of test animals, read-out: IC-50 eclos
Protocol: as §1
Culex test: The compounds are tested on mature larvae. The concentration (IC-50 eclos.) is given in ppm.
Aedes test: The same test as for Culex.

Tenebrio = details: Table II, known compounds; dose causing abnormal development of 50% of treated pupae; data from Nature, Vol. 232, Aug. 13, 1971; cited from earlier work

| Structure (SMILES) | ID-50 morph. (Tenebrio molitor L) | IC50 for inhibition of adult emergence (eclosion) (Culex pipiens L) | EC-50 eclos [1] | IC50 (inhibition of eclosion) (Aedes aegypti L) | ED50 (Tenebrio) | ID 50 morph. (Tenebrio molitor L; Table II, compounds of the formula I, Tenebrio) |
| --- | --- | --- | --- | --- | --- | --- |
| CCc1ccc(OCC=C(C)CCC2OC2(C)CC)cn1 (stereo not shown) [Compound 30, 6,7-Epoxy-3,7-dimethyl-1l-(6'-ethyl-3'-pyridyloxy)-2l-nonene] | 0.0003 μg/pupa | < 10 mg/L | > 100 ppm | 0.5 mg/L |  |  |
| C/C(=C\COc1ccc(C)cc1)CCC1OC1(C)C (stereo not shown) [R CH3, n 1] |  |  |  |  | 0,05 μg/pupa |  |
| CC(C)=CCC/C(C)=C/COc1ccc(C)nc1 [Compound 1, 3,7-dimethyl-1-(6'-methyl-3'-pyridyl-oxy)-2,6-octadiene] | 0.02 μg/pupa | 0.5 mg/L | > 100 ppm | 0.5 mg/L |  | 0,02 μg/150 mg pupa |
| CCOC(C)(C)CCCC(C)CCOc1ccc(CC)nc1 (stereo not shown) [Compound 39, 7-Ethoxy-3,7-dimethyl-1l-(96'-ethyl-3'-pyridyloxy)-octane] | 0.01 μg/pupa | < 10 mg/L | > 100 ppm | 0.5 mg/L |  |  |
| CCc1ccc(OCCC(C)CCC2OC2(C)C)cn1 (stereo not shown) [Compound 38, 6,7-Epoxu-3,7-dimethyl-1l-(6'-ethyl-3'-pyridyloxy)-octane] | 0.005 μg/pupa | < 10 mg/L | > 100 ppm | < 1 mg/L |  |  |
| CCc1ccc(OCC=C(C)CCC2OC2(C)C)cn1 (stereo not shown) [Compound 13, 6,7-Epoxy-3,7-dimethyl-1l-(6'-ethyl-3'-pyridyloxy)-2l-octene] | 0.0001 μg/pupa | 0.005 mg/L | > 100 ppm | 0.1 mg/L |  |  |

Reference: patent publication US4061757A, “Compounds having juvenile hormone activity” (A/S Cheminova, priority 1971, dated 1977)
